1 compound from patent US20200030236A1, “BIOPATCH, BIOHEATER, BIOSENSOR AND BIOELECTRONIC PATCH DEVICE” (SEOUL NATIONAL UNIVERSITY R&DB FOUNDATION, priority 2016, published 2020) can be followed below.

Structures are written as SMILES.

This experiment has as its system brain tumors. The experiment can be described thus: Size change in brain tumor and survival rate in rats having brain tumors. The note with it: (a) drug injected by intravenous injection, rats (FIGS. 27, 28). The format is in vivo. The text has this: FIGS. 27 to 29 show the result of comparing the size change in brain tumor and the survival rate according to four treatment methods applied to rats having brain tumors.

For the compound `COc1cccc2c1C(=O)c1c(O)c3c(c(O)c1C2=O)C[C@@](O)(C(=O)CO)C[C@@H]3O[C@H]1C[C@H](N)[C@H](O)[C@H](C)O1` [drug, doxorubicin], the “size change in brain tumor” value was “rapidly increases with time”.
